Laboratory results published in publication PMC4160091 (Frontiers in Cellular Neuroscience, 2014).
Entries after “also recorded” stand apart in the source; their conditions may differ.

Tests used:
[1] = biological target: T1, NT binding sites, human hypothalamus (neonate/infant) (Homo sapiens, UniProt P30989); test: Levocabastine competition with specific 125I-NT binding (competition experiments and autoradiography); conditions: all hypothalamic nuclei and areas in all cases
T1 construct: The frozen hypothalami were then sliced as 20 μm thick coronal sections; from tissue; host or cells: postmortem human neonate/infant hypothalamus, 20 μm frozen coronal sections
Description: After incubation, the slides were washed with ice cold buffer four times for 2 min each and rapidly dried with cold air. Labeled sections and iodinated standards (Amersham, Courtaboeuf Cedex, France) were then apposed to 3H sensitive Ultrofilm (Amersham) in Amersham exposure cassettes. After 2 weeks exposure in dark conditions at 4°C, the film was developed in Kodak D19 (Eastman Kodak, Rochester, NY, USA) for 3 min, dipped in water and fixed with Kodak rapid fixer for 10 min.
Kinetics (IC50 and KD) analysis was computed by the method of [Parker and Waud (1971)].

NT2 receptor = conditions: reference not given; cited from earlier work
NT binding sites = conditions: rat, 5–9 days after the birth; ref Lépée-Lorgeoux et al., 1999; cited from earlier work
Text: This is similar to that reported previously for somatostatin and benzodiazepine binding sites ([Najimi et al., 1991], [2001]). […] We cannot exclude also that these hypothalamic structures have not yet completed their neuronal maturation ([Kopp et al., 1992]). Studies on older ages should reveal the ...

T1 sequence (P30989 whole entry): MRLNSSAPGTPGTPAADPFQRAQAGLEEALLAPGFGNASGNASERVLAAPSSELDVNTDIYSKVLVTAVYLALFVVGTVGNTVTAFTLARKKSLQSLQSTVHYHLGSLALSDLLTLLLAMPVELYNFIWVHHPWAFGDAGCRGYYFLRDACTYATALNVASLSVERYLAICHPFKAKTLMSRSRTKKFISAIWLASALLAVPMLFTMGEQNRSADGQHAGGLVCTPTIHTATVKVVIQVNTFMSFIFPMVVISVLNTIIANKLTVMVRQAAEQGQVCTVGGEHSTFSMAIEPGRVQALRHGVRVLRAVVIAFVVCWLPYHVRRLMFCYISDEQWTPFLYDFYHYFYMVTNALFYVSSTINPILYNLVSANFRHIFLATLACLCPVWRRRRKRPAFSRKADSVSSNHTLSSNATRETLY

SMILES	inhibition of specific 125I-NT binding by levocabastine [1]	affinity for the NT2 receptor, in words (NT2 receptor)	number of NT binding sites after blockade of neurotransmission (NT binding sites)
C[C@@H]1CN([C@H]2CC[C@](C#N)(c3ccc(F)cc3)CC2)CC[C@]1(C(=O)O)c1ccccc1 [levocabastine]	insensitivity to levocabastine; also recorded: did not inhibit specific binding of ^125I-NT	has affinity for the NT2 receptor	
COc1cccc(OC)c1-c1cc(C(=O)NC2(C(=O)O)C3CC4CC(C3)CC2C4)nn1-c1ccnc2cc(Cl)ccc12 (stereo not drawn) [SR 48692]			increases greatly the number of NT binding sites
